Tests used:
Assay type in all cases: cell-based
[1] = test system: AMPK and ACC phosphorylation; assay: Western blot of AMPK and ACC phosphorylation in mouse embryonic fibroblasts; settings: LKB1−/− cells; 50, 100, 200 μM
Protocol: Similar results were also observed in mouse embryonic fibroblast (MEFs). […] Cells in the left panel were incubated overnight without serum before harvesting; the cells on the right were not incubated under serum free conditions. […] Tubulin served as a loading control.

phosphorylation of ACC = assay: Western blot of ACC phosphorylation in 3T3-L1 adipocytes; settings: harvested 6 or 10 days after induction of differentiation
Protocol: Phosphorylation of ACC, which reflects AMPK activity, was also observed in 3T3-L1 adipocytes treated with either ethanol or resveratrol. 3T3-L1 cells were incubated with either ethanol or resveratrol and then harvested either 6 or 10 days after they were induced to differentiate into adipocytes from the parent 3T3 fibroblast cell line. […] ACC was also phosphorylated when the cells were incubated in serum free media overnight before harvesting (lanes marked “SF”). The reason for the extra band in the SIRT1 blot at day 6 is unknown, but we hypothesize that it may be a modified form of SIRT1. Tubulin served as a loading control.

HepG2 cells = assay: Oxidation of 14C-palmitate in HepG2 cells; settings: resveratrol 10 μM in 1% DMSO, AICAR 500 μM in H2O, metformin 1 mM in H2O; 4 hours; vehicle = 1
Protocol: (§1) Oxidation of 14C-palmitate to acid-soluble products (modified from H4IIEC3 cells [Witters, L. A. and B. E. Kemp, Insulin activation of acetyl-CoA carboxylase accompanied by inhibition of the 5′-AMP-activated protein kinase. J Biol Chem, 1992. 267(5): p. 2864-7] and HepG2 cells were maintained as described above. Cells (10^6 cells/T25) were seeded in a T25 flask one day prior to the experiment. On the day of the experiment cells were washed with assay buffer (114 mM NaCl, 4.7 mM KCL, 1.2 mM KH2PO4, 1.2 mM MgSO4, 11 mM glucose) before labeling with 14C-palmitate (0.4 μCi/ml) in presence of vehicle, or resveratrol (10 μM), or AICAR (500 μM) for 4 hours.
(§2) At the end of incubation, the cap of each T25 flask was replaced with a stopper and a 1′×1.5″ Whatman filter paper soaked with 250 μl 2N NaOH. Each flask was injected with 2 ml of 6N HCL, placed in a horizontal position for 10 minutes and left standing overnight. The next morning, 1 ml H2O and 61 μl NaOH were added to a glass scintillation vial and the filter papers from each T25 flask were transferred to their respective vial. 10 ml Aquasol was added to each vial and allowed to stand for 2 hours, after which the vials were vortexed to dissolve the […] and counted in the scintillation counter. The results were expressed as nmols/h/106 cells and shown as the fold effect. ^14CO2 production ranged from 0.3 to 1.8 nmols/h/106 cells. The experiment was repeated three times.

3T3-L1 cells = assay: Adipocyte differentiation and fat content by Oil Red O staining, 3T3-L1 cells
Protocol: To obtain evidence that resveratrol affects fat metabolism in a physiologically relevant cell, we examined the effect of increasing concentrations of resveratrol on 3T3-L1 and NIH3T3 cell differentiation and fat content. 3T3-L1 or NIH3T3 cells were grown to confluence and allowed to pack in for 2 days at which point differentiation was initiated by addition of isobutylmethylxanthine, dexamethasone and insulin in the presence of vehicle (ethanol alone) or resveratrol at concentrations of 0, 12.5 and 25 μM. After 10 days of differentiation, fat content was assessed by Oil Red O staining, as described below. The results, which are shown in FIG. 12, indicate that concentrations of 25 μM or higher resveratrol decreased the quantity of cellular fat in 3T3-L1 and NIH3T3 cells. The results in NIH3T3 cells confirm the results obtained in C. elegans.
We then infected 3T3 preadipoctyes/adipocytes with pMX alone or pMX encoding PPAR-γ and examined the effect of resveratrol on 3T3 cell differentiation. 3T3-L1 and NIH3T3 cells were infected with a plasmid expressing GFP or PPAR-γ and grown to confluence. […]
3T3-L1 and NIH3T3 cells were maintained in DMEM plus 10% calf serum. […] The staining of adipocytes with Oil Red-O and quantitation was performed as described previously (Ramirez-Zacarias J L, Castro-Munozledo F, Kuri-Harcuch W. Histochemistry. 1992 July; 97(6):493-7). […]

[2] = test system: phosphorylation of AMPK on threonine 172 and of ACC on serine 79; assay: Western analysis of AMPK and ACC phosphorylation in CHO-HIR cells
Protocol: CHO-HIR mammalian cells were washed in PBS and incubated overnight in serum-free DMEM before treatment with 500 μM AICAR (positive control) or 12.5 μM, 25 μM or 50 μM resveratrol. Cells were harvested after 30 minutes and lysates were immediately boiled in SDS and subjected to Western analysis with site-specific antibodies. Phosphorylation of AMPK at Thr172 indicates activation of the kinase. Active AMPK phosphorylates and inactivates ACC at serine 79.
CHO cells were also treated with 500 μM AICAR (positive control), DMSO, 100 nM, 500 nM, 2.5 μM, 12.5 μM, 25 μM, or 50 μM resveratrol and subject to Western Blot analysis as described above. Western blots were stripped and re-probed for phosphorylated (active) AMPK, total AMPK, phosphorylated acetyl CoA carboxylase (ACC), which is the downstream target of AMPK, and tubulin, which served as a loading control.

H4IIEC3 cells = assay: Oxidation of 14C-palmitate in H4IIEC3 cells; settings: resveratrol 10 μM in 1% DMSO, AICAR 500 μM in H2O, metformin 1 mM in H2O; 4 hours; vehicle = 1
Protocol: as §1, §2

## Oc1ccc(/C=C/c2cc(O)cc(O)c2)cc1 [resveratrol, 3,5,4′-Trihydroxy-trans-stilbene]
[1]
  AMPK and ACC phosphorylation: still causes an upregulation of both AMPK and ACC phosphorylation
Phosphorylation of ACC
  phosphorylation of ACC: stimulated the phosphorylation of ACC at both day 6 and day 10
HepG2 cells
  14C-CO2 production (Fold Effect): 6 Fold Effect
3T3-L1 cells; 10 days of differentiation, 0, 12.5 and 25 μM tested, Oil Red O
  concentrations that decreased the quantity of cellular fat: ≥ 25 µM
3T3-L1 cells; cells overexpressing PPAR-γ, 0, 25 or 50 μM, eight days of differentiation
  inhibition of 3T3 preadipocyte differentiation: partially negated inhibition of 3T3 preadipocyte differentiation by resveratrol
[2]; CHO cells, 100 nM, 500 nM, 2.5, 12.5, 25 or 50 μM
  activation of AMPK (phosphorylated AMPK and ACC): activation of AMPK in CHO cells with increasing concentrations of resveratrol
[2]; resveratrol 12.5, 25 or 50 μM, AICAR 500 μM (positive control), 30 minutes, serum-free overnight
  phosphorylation of AMPK (threonine 172) and ACC (serine 79): stimulates phosphorylation of AMPK and ACC
H4IIEC3 cells
  14C-CO2 production (Fold Effect): 2.3 Fold Effect
